What was measured:
[1] = molecular target: T1, CDK2/CyclinA2 (Homo sapiens, UniProt P24941); assay: CDK2 Assay Kit, Kinase-Glo MAX luminescence; assay type: biochemical; conditions: one experimental data
T1 construct: purchased #79599
Method: The CDK2 Assay Kit is designed to measure CDK2/CyclinA2 activity for screening and profiling applications, using Kinase-Glo® MAX as a detection reagent. The CDK2 Assay Kit comes in a convenient 96-well format, with enough purified recombinant CDK2/CyclinA2 enzyme, CDK substrate peptide, ATP and kinase assay buffer for 100 enzyme reactions. […] […] The compounds were diluted in 10% DMSO and 5 μl of the dilution was added to a 50 μl reaction so that the final concentration of DMSO was 1% in all of the reactions. All of the enzymatic reactions were conducted at 30 °C for 40 min. The 50 μl reaction mixture contained 40 mM Tris, pH 7.4, 10 mM MgCl2, 0.1 mg/mL BSA, 1 mM DTT, 10 mM ATP, Kinase substrate and the enzyme (CDK2/CyclinA2). After the enzymatic reaction, 50 μl of Kinase-Glo® MAX Luminescence kinase assay solution was added to each reaction and the plates were incubated for 5 min at room temperature. Luminescence signal was measured using a Bio Tek Synergy 2 microplate reader.
Figure S1. Calculation of the IC20 Values of Protein Kinase Enzyme CDK2 for 2f
* All the kinase IC20 (µM) were calculated according to the above equations.
(1 picture or pasted object on this page, not shown here)

[2] = molecular target: T2, HER2 (Homo sapiens, UniProt P04626); assay: HER2 kinase assay kit, Kinase-Glo MAX luminescence; assay type: biochemical; conditions: for inhibition at 0.01 µM / inhibition at 0.1 µM / inhibition at 1 µM / inhibition at 10 µM: one experimental data; for IC50: mean ± SD of triplicate
T2 construct: purchased #40721
Method: (§1) The HER2/EGFR/VEGFR2 assay kit is designed to measure HER2/EGFR/VEGFR-2 inhibitory activity for screening and profiling applications, using Kinase-Glo® MAX as a detection reagent. The HER2/EGFR/VEGFR2 assay kit comes in a convenient 96-well format, with enough purified recombinant HER2/EGFR/VEGFR2 enzyme, HER2/EGFR/VEGFR2 substrate, ATP and kinase buffer 1 for 100 enzyme reactions. […] […] The quinazolin-4(3H)-ones were diluted in 10% DMSO and 5 μl of the dilution was added to a 50 μl reaction so that the final concentration of DMSO was 1% in all of the reactions. All of the enzymatic reactions were conducted at 30 °C for 40 min. The 50 μl reaction mixture contained 40 mM Tris, pH 7.4, 10 mM MgCl2, 0.1 mg/mL BSA, 1 mM DTT, 10 mM ATP, kinase substrate and the enzyme HER2 / EGFR / VEGFR2. After the enzymatic reaction, 50 μl of Kinase-Glo® MAX luminescence kinase assay solution was added to each reaction and the plates were incubated for 5 min at room temperature. Luminescence signal was measured using a Bio Tek Synergy 2 microplate reader (For detail enzyme assay protocol and the results, please see supplementary data).

[3] = system: A2780 (human ovary adenocarcinoma) cells; assay: MTT cytotoxicity assay, A2780; assay type: cell-based; conditions: Homo sapiens, A2780, mean ± SD of triplicate
Method: (§2) The cytotoxicity of the synthesised quinazolin-4(3H)-ones was evaluated by MTT assay, as previously described. Two cancer cell lines, MCF7 (human breast adenocarcinoma) and A2780 (human ovary adenocarcinoma), were used in this study, which were obtained from the ATCC (Rockville, MD, USA). […] Additionally, compounds were prepared at the same medium to obtain serial dilutions (50, 25, […] and 0.1 µM). […] The media were aspirated, and the formazan crystals were solubilised by adding 150 µL DMSO. Absorbance was read on a multi-plate reader (BioRad) at […]. […] The data were obtained from triplicates and analysed using statistical software.

[4] = system: MCF7 (human breast adenocarcinoma) cells; assay: MTT cytotoxicity assay, MCF7; assay type: cell-based; conditions: Homo sapiens, MCF7, mean ± SD of triplicate
Method: as §2

[5] = molecular target: T1, CDK2/CyclinA2; assay: CDK2 Assay Kit, Kinase-Glo MAX luminescence; assay type: biochemical; conditions: mean ± SD of triplicate
[6] = molecular target: T3, EGFR (Homo sapiens, UniProt P00533); assay: EGFR kinase assay kit, Kinase-Glo MAX luminescence; assay type: biochemical; conditions: for inhibition at 0.01 µM / inhibition at 0.1 µM / inhibition at 1 µM / inhibition at 10 µM: one experimental data; for IC50: mean ± SD of triplicate
T3 construct: purchased #40321
Method: as §1

[7] = molecular target: T4, VEGFR2 (Homo sapiens, UniProt P35968); assay: VEGFR2 kinase assay kit, Kinase-Glo MAX luminescence; assay type: biochemical; conditions: for inhibition at 0.01 µM / inhibition at 0.1 µM / inhibition at 1 µM / inhibition at 10 µM: one experimental data, read-out: % Inhibition VEGFR-2; for IC50: mean ± SD of triplicate
T4 construct: purchased #40325
Method: as §1

T4 sequence (P35968 20-1356): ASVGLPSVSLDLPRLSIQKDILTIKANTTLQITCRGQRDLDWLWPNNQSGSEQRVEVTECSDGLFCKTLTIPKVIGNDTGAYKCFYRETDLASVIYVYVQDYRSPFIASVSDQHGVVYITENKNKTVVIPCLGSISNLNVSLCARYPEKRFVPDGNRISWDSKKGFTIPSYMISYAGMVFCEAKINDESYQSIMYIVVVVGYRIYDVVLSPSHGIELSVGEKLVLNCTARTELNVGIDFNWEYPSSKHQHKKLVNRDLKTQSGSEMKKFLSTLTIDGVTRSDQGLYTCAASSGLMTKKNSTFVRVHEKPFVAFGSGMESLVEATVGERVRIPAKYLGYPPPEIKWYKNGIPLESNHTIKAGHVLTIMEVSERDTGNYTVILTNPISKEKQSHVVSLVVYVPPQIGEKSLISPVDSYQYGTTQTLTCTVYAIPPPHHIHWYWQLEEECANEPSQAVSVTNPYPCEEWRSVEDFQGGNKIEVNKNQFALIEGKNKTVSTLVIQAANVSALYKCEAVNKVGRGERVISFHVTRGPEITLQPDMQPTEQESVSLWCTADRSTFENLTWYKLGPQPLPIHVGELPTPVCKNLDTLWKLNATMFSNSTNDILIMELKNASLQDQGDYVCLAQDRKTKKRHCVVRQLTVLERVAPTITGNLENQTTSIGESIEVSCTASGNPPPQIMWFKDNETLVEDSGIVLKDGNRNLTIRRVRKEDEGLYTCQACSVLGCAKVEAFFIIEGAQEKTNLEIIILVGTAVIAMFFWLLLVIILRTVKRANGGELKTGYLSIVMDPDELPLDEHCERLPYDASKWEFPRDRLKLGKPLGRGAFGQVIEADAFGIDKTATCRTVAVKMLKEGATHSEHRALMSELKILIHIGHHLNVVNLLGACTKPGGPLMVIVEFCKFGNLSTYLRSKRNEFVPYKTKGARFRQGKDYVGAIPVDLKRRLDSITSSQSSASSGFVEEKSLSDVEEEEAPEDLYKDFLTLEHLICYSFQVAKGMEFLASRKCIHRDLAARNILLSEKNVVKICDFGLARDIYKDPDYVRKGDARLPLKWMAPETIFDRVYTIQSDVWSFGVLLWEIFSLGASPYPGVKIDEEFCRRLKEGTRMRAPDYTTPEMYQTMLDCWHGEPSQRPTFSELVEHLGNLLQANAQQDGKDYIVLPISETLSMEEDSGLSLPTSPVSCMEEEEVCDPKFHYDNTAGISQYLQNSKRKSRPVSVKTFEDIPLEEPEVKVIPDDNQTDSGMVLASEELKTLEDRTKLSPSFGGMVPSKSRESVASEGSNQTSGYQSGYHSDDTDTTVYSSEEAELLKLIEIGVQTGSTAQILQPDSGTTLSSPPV
T3 sequence (P00533 25-1210): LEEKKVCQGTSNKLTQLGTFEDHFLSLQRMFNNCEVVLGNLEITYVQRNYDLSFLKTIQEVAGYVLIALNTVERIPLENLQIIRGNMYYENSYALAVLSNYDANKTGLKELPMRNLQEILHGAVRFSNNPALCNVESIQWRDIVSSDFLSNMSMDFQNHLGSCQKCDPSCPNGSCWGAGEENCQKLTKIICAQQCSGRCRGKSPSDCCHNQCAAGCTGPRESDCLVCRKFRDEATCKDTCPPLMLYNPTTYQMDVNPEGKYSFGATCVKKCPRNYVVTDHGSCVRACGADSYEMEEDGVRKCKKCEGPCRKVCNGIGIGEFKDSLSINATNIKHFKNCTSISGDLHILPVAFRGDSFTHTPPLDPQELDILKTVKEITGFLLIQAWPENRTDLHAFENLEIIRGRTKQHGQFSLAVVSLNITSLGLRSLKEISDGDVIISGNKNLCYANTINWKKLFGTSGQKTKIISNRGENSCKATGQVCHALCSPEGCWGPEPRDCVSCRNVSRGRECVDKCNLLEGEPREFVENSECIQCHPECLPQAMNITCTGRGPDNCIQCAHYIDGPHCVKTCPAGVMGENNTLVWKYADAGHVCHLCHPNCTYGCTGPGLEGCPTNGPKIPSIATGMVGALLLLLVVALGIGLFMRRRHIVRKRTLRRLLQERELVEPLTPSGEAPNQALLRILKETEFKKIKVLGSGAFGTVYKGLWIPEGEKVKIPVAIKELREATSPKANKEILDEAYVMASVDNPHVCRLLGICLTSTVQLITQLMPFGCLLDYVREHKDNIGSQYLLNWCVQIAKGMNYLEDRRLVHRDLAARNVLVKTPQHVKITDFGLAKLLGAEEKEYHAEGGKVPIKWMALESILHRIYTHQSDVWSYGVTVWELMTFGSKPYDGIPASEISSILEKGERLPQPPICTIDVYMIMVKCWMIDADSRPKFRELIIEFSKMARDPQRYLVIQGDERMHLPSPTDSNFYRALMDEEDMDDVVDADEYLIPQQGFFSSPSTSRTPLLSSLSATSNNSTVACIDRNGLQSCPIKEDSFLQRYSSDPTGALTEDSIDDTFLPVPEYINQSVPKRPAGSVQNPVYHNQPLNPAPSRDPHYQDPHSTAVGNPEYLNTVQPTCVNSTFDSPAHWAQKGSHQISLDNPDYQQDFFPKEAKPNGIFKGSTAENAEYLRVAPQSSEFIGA
T2 sequence (P04626 23-1255): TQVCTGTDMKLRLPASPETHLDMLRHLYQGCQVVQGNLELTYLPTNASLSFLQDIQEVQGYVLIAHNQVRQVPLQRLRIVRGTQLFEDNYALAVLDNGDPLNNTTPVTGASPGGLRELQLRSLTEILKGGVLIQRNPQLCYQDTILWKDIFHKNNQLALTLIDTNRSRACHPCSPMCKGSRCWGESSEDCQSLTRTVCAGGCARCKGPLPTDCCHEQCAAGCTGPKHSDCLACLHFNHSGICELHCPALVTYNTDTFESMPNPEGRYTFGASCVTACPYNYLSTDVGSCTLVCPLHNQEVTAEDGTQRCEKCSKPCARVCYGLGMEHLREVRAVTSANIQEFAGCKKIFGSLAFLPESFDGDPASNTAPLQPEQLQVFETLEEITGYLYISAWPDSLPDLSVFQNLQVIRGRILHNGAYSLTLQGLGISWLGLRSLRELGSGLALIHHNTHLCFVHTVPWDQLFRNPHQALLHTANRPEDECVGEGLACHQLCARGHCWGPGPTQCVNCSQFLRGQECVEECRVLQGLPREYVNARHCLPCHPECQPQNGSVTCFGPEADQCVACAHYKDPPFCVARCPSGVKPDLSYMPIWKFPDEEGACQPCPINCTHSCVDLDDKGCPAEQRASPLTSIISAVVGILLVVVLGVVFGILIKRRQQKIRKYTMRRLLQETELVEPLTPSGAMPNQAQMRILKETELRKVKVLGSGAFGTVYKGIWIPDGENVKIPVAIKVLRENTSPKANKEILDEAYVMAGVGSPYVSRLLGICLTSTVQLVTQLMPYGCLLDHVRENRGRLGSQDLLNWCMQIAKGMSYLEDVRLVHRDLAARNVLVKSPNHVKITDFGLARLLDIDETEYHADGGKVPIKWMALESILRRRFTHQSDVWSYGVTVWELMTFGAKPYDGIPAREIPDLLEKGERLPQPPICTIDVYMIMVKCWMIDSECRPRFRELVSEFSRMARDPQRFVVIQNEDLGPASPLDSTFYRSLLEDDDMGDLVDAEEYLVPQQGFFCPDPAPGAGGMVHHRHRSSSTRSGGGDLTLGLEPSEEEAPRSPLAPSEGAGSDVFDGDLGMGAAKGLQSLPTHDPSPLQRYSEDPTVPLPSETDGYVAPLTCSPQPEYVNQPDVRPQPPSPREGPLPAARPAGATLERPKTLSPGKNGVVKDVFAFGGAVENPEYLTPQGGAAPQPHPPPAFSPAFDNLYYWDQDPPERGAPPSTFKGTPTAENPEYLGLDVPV

melting point [°C]	inhibition at 0.01 µM [1] [%]	inhibition at 0.1 µM [1] [%]	inhibition at 1 µM [1] [%]	inhibition at 10 µM [1] [%]	inhibition at 0.01 µM [2] [%]	inhibition at 0.1 µM [2] [%]	inhibition at 1 µM [2] [%]	inhibition at 10 µM [2] [%]	IC50 [2] [nM]	IC50 [5] [nM]	inhibition at 0.01 µM [6] [%]	inhibition at 0.1 µM [6] [%]	inhibition at 1 µM [6] [%]	inhibition at 10 µM [6] [%]	IC50 [6] [nM]	inhibition at 0.01 µM [7] [%]	inhibition at 0.1 µM [7] [%]	Structure (SMILES)	IC50 [3] [nM]	IC50 [4] [nM]	other results
120 to 123	2.43	12.5	24.4	80.2	9.07	38.9	32.3	82.3	138 ± 12	318 ± 23	3.71	27.5	21	77.3	102 ± 14	13.3	38.9	CCOC(=O)CSc1nc2c(F)cc(F)cc2c(=O)n1Cc1ccccc1 [2h, Ethyl 2-((3-benzyl-6,8-difluoro-4-oxo-3,4-dihydroquinazolin-2-yl)thio)acetate]	1400 ± 340	840 ± 160	inhibition at 1 µM [7]: 70.8%; inhibition at 10 µM [7]: 88%; IC50 [7]: 2190 ± 24 nM
151 to 152	2.23	34.7	33.3	81	17.3	47.8	82.2	90.2	132 ± 14	420 ± 13	3.31	31.3	31.4	84.8	440 ± 15	3.71	29.8	NNC(=O)CSc1nc2ccc(Cl)cc2c(=O)n1Cc1ccccc1 [3f, 2-((3-Benzyl-6-chloro-4-oxo-3,4-dihydroquinazolin-2-yl)thio)acetohydrazide]	1540 ± 600	340 ± 110	inhibition at 1 µM [7]: 23.4%; inhibition at 10 µM [7]: 79.3%; IC50 [7]: 651 ± 14 nM
110 to 111	8.38	20.7	78.2	91.4	17.3	44.2	83.5	94.4	884 ± 16	444 ± 11	22.9	48.9	80.1	91.2	232 ± 30	2.43	18.8	CCOC(=O)CSc1nc2ccc(F)cc2c(=O)n1Cc1ccccc1 [2g, Ethyl 2-((3-benzyl-6-fluoro-4-oxo-3,4-dihydroquinazolin-2-yl)thio)acetate]	2400 ± 200	1220 ± 170	inhibition at 1 µM [7]: 44.1%; inhibition at 10 µM [7]: 29.2%; IC50 [7]: 702 ± 13 nM
216 to 220	8.13	42.8	38.4	84	2.33	39.5	72	92.2	222 ± 12	473 ± 33	18.7	48.8	81	89.9	371 ± 14	1.98	22.3	Cc1cc(Cl)cc2c(=O)n(Cc3ccccc3)c(SCC(=O)NN)nc12 [3j]	220 ± 30	200 ± 20	inhibition at 1 µM [7]: 41.1%; inhibition at 10 µM [7]: 74.4%; IC50 [7]: 3085 ± 16 nM
104 to 105	4.28	40.5	37.8	83.7	20.4	24.4	83.7	94.8	128 ± 24	173 ± 12	11.8	43.7	39.1	82.3	97 ± 19	8.13	31.8	CCOC(=O)CSc1nc2cc(OC)c(OC)cc2c(=O)n1Cc1ccccc1 [2i, Ethyl 2-((3-benzyl-6,7-dimethoxy-4-oxo-3,4-dihydroquinazolin-2-yl)thio)acetate]	1160 ± 100	2700 ± 160	inhibition at 1 µM [7]: 20.3%; inhibition at 10 µM [7]: 77.8%; IC50 [7]: 2846 ± 14 nM

Source: PMC8462848, “Quinazolin-4(3H)-one based potential multiple tyrosine kinase inhibitors with excellent cytotoxicity” (Journal of Enzyme Inhibition and Medicinal Chemistry, 2021)
